Each structure is given as a SMILES string. Counter-ions that a name gives are not always drawn.

For the first data set, the target named is T1, Rat GnRH Receptor (Rattus norvegicus, UniProt P30969).
T1 construct: Anterior lobes of the pituitary glands were isolated from forty Wistar rats; from tissue; host or cells: rat (Wistar, male, 8 weeks) anterior pituitary membrane fraction
T1 sequence (P30969 1-327): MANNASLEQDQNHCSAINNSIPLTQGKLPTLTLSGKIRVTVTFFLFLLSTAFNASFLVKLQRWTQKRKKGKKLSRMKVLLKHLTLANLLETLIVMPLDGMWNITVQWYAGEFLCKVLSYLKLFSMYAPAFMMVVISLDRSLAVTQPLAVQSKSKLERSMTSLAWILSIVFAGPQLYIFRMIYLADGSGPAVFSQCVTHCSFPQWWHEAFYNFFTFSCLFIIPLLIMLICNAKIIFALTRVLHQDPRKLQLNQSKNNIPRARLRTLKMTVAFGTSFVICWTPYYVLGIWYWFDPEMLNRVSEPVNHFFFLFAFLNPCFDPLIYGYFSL
In words: 125I-leuprorelin binding inhibition, rat pituitary anterior lobe membrane fraction. The settings on record: 4° C. for 90 minutes, Hill plot. On the procedure: (§1) (1) Preparation of ^125I-Leuprorelin
(§2) To a tube containing 10 μl of a 3×10^−4 M aqueous solution of leuprorelin and 10 μl of 0.01 mg/ml lactoperoxidase, 10 μl (37 MBq) of a solution of Na^125I was added. After stirring, 10 μl of 0.001% H2O2 was added, and a reaction was carried out at room temperature for 20 minutes. By adding 700 μl of a 0.05% TFA (trifluoroacetic acid) solution, the reaction was stopped, and the solution was purified by reversed-phase HPLC. The HPLC conditions are shown below. ^125I-leuprorelin was eluted at a retention time of 26 to 27 minutes.
(2) Preparation of a Pituitary Anterior Lobe Membrane […]
(§3) When the rat pituitary anterior lobe membrane fraction was used, the reaction was conducted at 4° C. for 90 minutes. […] After the filtration, the radioactivity of ^125I-leuprorelin remaining on the filter paper was measured with a γ-counter.
(§4) (TB−SB)/(TB−NSB)×100 (SB: radioactivity when the compound is added, TB: maximum binding radioactivity, NSB: non-specific binding radioactivity) was calculated to find the binding inhibition rate (%) of each test substance. […]
For `CCNC(=O)Nc1ccc(-c2sc3c(c2CN(C)CCOC(C)C)c(=O)n(-c2ccccc2)c(=O)n3Cc2c(F)cccc2F)cc1` [Example 110, N-[4-(1-(2,6-difluorobenzyl)-[(2-(2-propoxy)ethyl(methyl)amino}methyl]-2,4-dioxo-3 phenyl-1,2,3,4-tetrahydrothieno[2,3-d]pyrimidin-6-yl)phenyl]-N′-ethylurea], the IC50 is 0.2 µM. Molecule `CCNC(=O)Nc1ccc(-c2sc3c(c2CN(C)CCOC)c(=O)n(-c2ccccc2)c(=O)n3Cc2c(F)cccc2F)cc1` [Example 112, N-[4-(1-(2,6-difluorobenzyl)-5-{[(2-methoxyethyl)(methyl)amino]methyl}-2,4-dioxo-3-phenyl-1,2,3,4-tetrahydrothieno[2,3-d]pyrimidin-6-yl)phenyl]-N′-ethylurea 1 hydrochloride] showed a concentration for half-maximal inhibition (IC50) of 0.2 µM.

The target in the next data set is T2, Human GnRH Receptor (Homo sapiens, UniProt P30968).
T2 construct: expressed in transfected cells; host or cells: CHO (Chinese hamster ovary) cells
T2 sequence (P30968 1-328): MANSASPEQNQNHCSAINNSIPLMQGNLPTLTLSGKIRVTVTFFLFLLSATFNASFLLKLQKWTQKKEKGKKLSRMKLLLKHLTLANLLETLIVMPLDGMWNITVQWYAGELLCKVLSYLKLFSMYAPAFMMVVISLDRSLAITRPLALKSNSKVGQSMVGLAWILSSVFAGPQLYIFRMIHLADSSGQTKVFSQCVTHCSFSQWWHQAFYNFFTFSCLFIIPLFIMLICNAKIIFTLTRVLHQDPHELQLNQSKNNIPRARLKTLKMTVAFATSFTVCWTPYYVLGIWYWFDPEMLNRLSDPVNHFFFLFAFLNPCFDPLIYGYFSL
In words: 125I-leuprorelin binding inhibition, membrane fraction of human GnRH receptor-expressing CHO cells. The settings on record: 25° C. for 60 minutes, Hill plot. On the procedure:
as §1, §2
(3) Preparation of a CHO (Chinese Hamster Ovarian) Cell Membrane Fraction Containing Human GnRH Receptor
Human GnRH receptor-expressing CHO cells (10^9 cells) were suspended in phosphate-buffered saline supplemented with 5 mM EDTA (PBS-EDTA) and centrifuged at 100×g for 5 minutes. […]
as §3, §4
`CCNC(=O)Nc1ccc(-c2sc3c(c2CN(C)CCOC(C)C)c(=O)n(-c2ccccc2)c(=O)n3Cc2c(F)cccc2F)cc1` [Example 110, N-[4-(1-(2,6-difluorobenzyl)-[(2-(2-propoxy)ethyl(methyl)amino}methyl]-2,4-dioxo-3 phenyl-1,2,3,4-tetrahydrothieno[2,3-d]pyrimidin-6-yl)phenyl]-N′-ethylurea] displayed a half-maximal inhibitory concentration (IC50) below 0.0001 µM. `CCNC(=O)Nc1ccc(-c2sc3c(c2CN(C)CCOC)c(=O)n(-c2ccccc2)c(=O)n3Cc2c(F)cccc2F)cc1` [Example 112, N-[4-(1-(2,6-difluorobenzyl)-5-{[(2-methoxyethyl)(methyl)amino]methyl}-2,4-dioxo-3-phenyl-1,2,3,4-tetrahydrothieno[2,3-d]pyrimidin-6-yl)phenyl]-N′-ethylurea 1 hydrochloride]: the concentration for half-maximal inhibition (IC50) was 0.0001 µM.

Tested on in the next data set: not given
Experiment: not given
Conditions: not given
`CCNC(=O)Nc1ccc(-c2sc3c(c2CN(C)CCC(=O)N(C)C)c(=O)n(-c2ccc(OCCOC)cc2)c(=O)n3Cc2c(F)cccc2F)cc1` [Example 100, 3-[({1-2,6-(difluorobenzyl)-6-(4-{[(ethylamino)carbonyl]amino}phenyl)-3-[4-(2-methoxyethoxy)phenyl]-2,4-dioxo-1,2,3,4-tetrahydrothieno[2,3-d]pyrimidin-5-yl)methyl)(methyl)amino)-N,N-dimethylpropanamide] showed a melting point of 215 to 218 °C. Regarding `CCNC(=O)Nc1ccc(-c2sc3c(c2CN(C)CCOC)c(=O)n(-c2ccc(OCCOC)c(OCCOC)c2)c(=O)n3Cc2c(F)cccc2F)cc1` [Example 101, N-[4-(3-[3,4-bis(2-methoxyethoxy)phenyl]-1-(2,6-difluorobenzyl)-5-{[(2-methoxyethyl)(methyl)amino]methyl}-2,4-dioxo-1,2,3,4-tetrahydrothieno[2,3-d]pyrimidin-6-yl)phenyl]-N′-ethylurea], the melting point was in the range of 206 to 208 °C. Consider `CCNC(=O)Nc1ccc(-c2sc3c(c2CN(C)CCOC)c(=O)n(-c2ccc(OCc4ccccc4)cc2)c(=O)n3Cc2c(F)cccc2F)cc1` [Example 102], for which the melting point lay within 223 to 225 °C. Take `CCNC(=O)Nc1ccc(-c2sc3c(c2CN(C)CCOC)c(=O)n(-c2ccc(O)cc2)c(=O)n3Cc2c(F)cccc2F)cc1` [Example 103]: the melting point was 260 to 265 °C. With `CCNC(=O)Nc1ccc(-c2sc3c(c2CN(C)CCOC)c(=O)n(-c2ccc(OCCOC)cc2)c(=O)n3Cc2c(F)cccc2F)cc1` [Example 104], the melting point lay within 215 to 218 °C.

`CCNC(=O)Nc1ccc(-c2sc3c(c2CN(C)CCOC)c(=O)n(-c2ccc(OCCOC)c(OCCOC)c2)c(=O)n3Cc2c(F)cccc2F)cc1` [Example 105] displayed a melting point of 222 to 225 °C. `CCNC(=O)Nc1ccc(-c2sc3c(c2CN(C)CCOC)c(=O)n(-c2ccc(OCCNS(C)(=O)=O)cc2)c(=O)n3Cc2c(F)cccc2F)cc1` [Example 106] yielded a melting point of 232 to 235 °C. In turn, `CCNC(=O)Nc1ccc(-c2sc3c(c2CN(C)CCOC)c(=O)n(-c2ccc(OCCOC(C)=O)cc2)c(=O)n3Cc2c(F)cccc2F)cc1` [Example 107, 2-[4-(1-(2,6-difluorobenzyl)-6-(4-{[(ethylamino)carbonyl]amino}phenyl)-5-([(2-methoxyethyl(methyl)amino)methyl]-2,4-dioxo-1,2,3,4-tetrahydrothieno[2,3-d]pyrimidin-3(2H)-yl}phenoxy)ethyl acetate] had a melting point of 212 to 215 °C. The molecule `CCNC(=O)Nc1ccc(-c2sc3c(c2CN(C)CCOC)c(=O)n(-c2ccc(OCCO)cc2)c(=O)n3Cc2c(F)cccc2F)cc1` [Example 108] returned a melting point of 236 to 238 °C. Still for that read-out and setting: the same measure for `CCNC(=O)Nc1ccc(-c2sc3c(c2CN(C)CCOCCOC)c(=O)n(-c2ccccc2)c(=O)n3Cc2c(F)cccc2F)cc1` [Example 109, N-[4-(1-(2,6-difluorobenzyl)-5-{[[2-(2-methoxyethoxy)ethyl](methyl)amino]methyl}-2,4-dioxo-3 phenyl-1,2,3,4-tetrahydrothieno[2,3-d]pyrimidin-6-yl)phenyl]-N′-ethylurea]: 228 to 231 °C; for `CCNC(=O)Nc1ccc(-c2sc3c(c2CN(C)CCOC(C)C)c(=O)n(-c2ccccc2)c(=O)n3Cc2c(F)cccc2F)cc1` [Example 110, N-[4-(1-(2,6-difluorobenzyl)-[(2-(2-propoxy)ethyl(methyl)amino}methyl]-2,4-dioxo-3 phenyl-1,2,3,4-tetrahydrothieno[2,3-d]pyrimidin-6-yl)phenyl]-N′-ethylurea]: 224 °C. In turn, `CCNC(=O)Nc1ccc(-c2sc3c(c2CN(C)CCOCCOCC)c(=O)n(-c2ccccc2)c(=O)n3Cc2c(F)cccc2F)cc1` [Example 111, N-[4-(1-(2,6-difluorobenzyl)-5-[{[2-(2-ethoxy)ethoxy]ethyl(methyl)amino}methyl]-2,4-dioxo-3-phenyl-1,2,3,4-tetrahydrothieno[2,3-d]pyrimidin-6-yl)phenyl]-N′-ethylurea] gave a melting point of 230 to 233 °C. As for `CCNC(=O)Nc1ccc(-c2sc3c(c2CN(C)Cc2ccccn2)c(=O)n(-c2ccccc2)c(=O)n3Cc2c(F)cccc2F)cc1` [Example 113], the melting point lay in the range of 203 to 204 °C. In turn, `CCNC(=O)Nc1ccc(-c2sc3c(c2CN(C)Cc2ccccn2)c(=O)n(-c2ccc(F)cc2)c(=O)n3Cc2c(F)cccc2F)cc1` [Example 114] yielded a melting point of 243 to 244 °C.

The IC50 is the concentration at which inhibition is half-maximal. The low end stands for inhibition by little substance, the high end for a need for much substance. One may read the melting point as the temperature of the solid-liquid transition.
